{
  "source": "patent US12052991B2",
  "about": "“Substituted pyridinyloxybenzenes and salts thereof and use thereof as herbicidal agents” (Bayer Aktiengesellschaft, priority 2018, dated 2024)",
  "format_in_all_cases": "in vivo",
  "key": {"[1]": {"system": "Matricaria inodora (MATIN)", "experiment": "Herbicidal post-emergence action (Table B7)", "details": "rated visually after about 3 weeks, 100% = plants have died, 0% = like control plants", "procedure,_shortened": "(§1)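 Visual percent activity relative to untreated controls (100% = plants dead, 0% = like controls) was scored about 3 weeks after treatment. Plants had been sprayed at the one-leaf stage with formulated compound at 1280 or 320 g/ha in 600 L/ha water containing 0.5% additive.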"}, "[2]": {"system": "Alopecurus myosuroides (ALOMY)", "experiment": "Herbicidal pre-emergence action, test D, single sowings (Table D1)", "details": "80 g/ha; scored visually after about 3 weeks; 100% = plants have died, 0% = like control plants", "source_text": "(§2) Seeds of monocotyledonous and dicotyledonous weed plants were laid out in plastic or organic plant pots (single sowings with one species of mono- or dicotyledonous weed plant per pot) and covered with soil. The compounds of the invention, formulated in the form of wettable powders (WP) or as emulsion concentrates (EC), were then applied to the surface of the covering soil as aqueous suspension or emulsion with addition of 0.5% additive at a water application rate equivalent to 600 l/ha (converted). After the treatment, the pots were placed in a greenhouse and kept under good growth conditions for the test plants. After about 3 weeks, the effect of the preparations was scored visually in comparison with untreated controls as percentages. For example, 100% activity=the plants have died, 0% activity=like control plants. Tables D1 to D8 below show the effects of selected compounds of the general formula (I) according to Table 1 on various harmful plants and an application rate corresponding to 80 g/ha, which were obtained by the experimental procedure mentioned above."}, "[3]": {"system": "Digitaria sanguinalis (DIGSA)", "experiment": "Herbicidal pre-emergence action, test D, single sowings (Table D2)", "details": "80 g/ha; scored visually after about 3 weeks; 100% = plants have died, 0% = like control plants", "source_text": "as §2"}, "Veronica persica (VERPE) [4]": {"system": "Veronica persica (VERPE)", "experiment": "Herbicidal pre-emergence action, test D, single sowings (Table D8)", "details": "dosage 80 g/ha, scored after about 3 weeks", "source_text": "as §2"}, "[5]": {"system": "Alopecurus myosuroides (ALOMY)", "experiment": "Herbicidal post-emergence action (Table B9)", "details": "rated visually after about 3 weeks, 100% = plants have died, 0% = like control plants", "procedure,_shortened": "as §1"}, "Bassia scoparia (KCHSC)": {"system": "Bassia scoparia (KCHSC)", "experiment": "Herbicidal post-emergence action (Table B11)", "details": "visual rating about 3 weeks after treatment, 100% = plants have died, 0% = like control plants", "procedure,_shortened": "as §1"}, "[6]": {"system": "Matricaria inodora (MATIN)", "experiment": "Herbicidal pre-emergence action, test C (Table C7)", "details": "visual scoring after about 3 weeks, 100% = plants have died, 0% = like control plants", "procedure,_shortened": "(§3)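 In this test, soil-covered weed seeds in sandy loam received a surface application of compound at 1280 or 320 g/ha. Effects were rated visually as percentages compared with untreated controls roughly 3 weeks later.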"}, "Veronica persica (VERPE) [7]": {"system": "Veronica persica (VERPE)", "experiment": "Herbicidal pre-emergence action, test C (Table C12)", "details": "visual scoring vs untreated controls", "procedure,_shortened": "as §3"}},
  "data": [
    {"compound": "Fc1cccc(Oc2ccc(Cl)cn2)c1-c1cc(C(F)F)no1", "note": "[Example 1-17]", "values": [
      {"measurement": "Post-emergence action against Matricaria inodora (MATIN)", "setting": "[1]; 320 g/ha", "result": 100, "unit": "%"},
      {"measurement": "Post-emergence action against Matricaria inodora (MATIN)", "setting": "[1]; 1280 g/ha", "result": 100, "unit": "%"},
      {"measurement": "Pre-emergence action against Alopecurus myosuroides (ALOMY)", "setting": "[2]", "result": 100, "unit": "%"},
      {"measurement": "Pre-emergence action against Digitaria sanguinalis (DIGSA)", "setting": "[3]", "result": 90, "unit": "%"},
      {"measurement": "Pre-emergence action against Veronica persica (VERPE)", "setting": "Veronica persica (VERPE) [4]", "result": 100, "unit": "%"}
    ]},
    {"compound": "FC(F)c1cc(-c2ccccc2Oc2ccc(Cl)cn2)on1", "note": "[Example 1-35]", "values": [
      {"measurement": "Post-emergence action against Alopecurus myosuroides (ALOMY)", "setting": "[5]; 320 g/ha", "result": 100, "unit": "%"},
      {"measurement": "Post-emergence action against Alopecurus myosuroides (ALOMY)", "setting": "[5]; 1280 g/ha", "result": 100, "unit": "%"},
      {"measurement": "Post-emergence action against Bassia scoparia (KCHSC)", "setting": "Bassia scoparia (KCHSC); dosage 320 g/ha", "result": 100, "unit": "%"},
      {"measurement": "Post-emergence action against Bassia scoparia (KCHSC)", "setting": "Bassia scoparia (KCHSC); dosage 1280 g/ha", "result": 100, "unit": "%"},
      {"measurement": "Pre-emergence action against Matricaria inodora (MATIN)", "setting": "[6]; dosage 320 g/ha", "result": 90, "unit": "%"},
      {"measurement": "Pre-emergence action against Matricaria inodora (MATIN)", "setting": "[6]; dosage 1280 g/ha", "result": 100, "unit": "%"},
      {"measurement": "Pre-emergence action against Veronica persica (VERPE)", "setting": "Veronica persica (VERPE) [7]; dosage 320 g/ha", "result": 100, "unit": "%"},
      {"measurement": "Pre-emergence action against Veronica persica (VERPE)", "setting": "Veronica persica (VERPE) [7]; dosage 1280 g/ha", "result": 100, "unit": "%"},
      {"measurement": "Pre-emergence action against Digitaria sanguinalis (DIGSA)", "setting": "[3]", "result": 100, "unit": "%"},
      {"measurement": "Pre-emergence action against Veronica persica (VERPE)", "setting": "Veronica persica (VERPE) [4]", "result": 100, "unit": "%"}
    ]},
    {"compound": "Fc1cccc(Oc2ccc(Br)cn2)c1-c1cc(C(F)F)no1", "note": "[Example 1-40]", "values": [
      {"measurement": "Post-emergence action against Matricaria inodora (MATIN)", "setting": "[1]; 320 g/ha", "result": 100, "unit": "%"},
      {"measurement": "Post-emergence action against Matricaria inodora (MATIN)", "setting": "[1]; 1280 g/ha", "result": 100, "unit": "%"},
      {"measurement": "Post-emergence action against Alopecurus myosuroides (ALOMY)", "setting": "[5]; 320 g/ha", "result": 100, "unit": "%"},
      {"measurement": "Post-emergence action against Alopecurus myosuroides (ALOMY)", "setting": "[5]; 1280 g/ha", "result": 100, "unit": "%"},
      {"measurement": "Post-emergence action against Bassia scoparia (KCHSC)", "setting": "Bassia scoparia (KCHSC); dosage 320 g/ha", "result": 100, "unit": "%"},
      {"measurement": "Post-emergence action against Bassia scoparia (KCHSC)", "setting": "Bassia scoparia (KCHSC); dosage 1280 g/ha", "result": 100, "unit": "%"},
      {"measurement": "Pre-emergence action against Matricaria inodora (MATIN)", "setting": "[6]; dosage 320 g/ha", "result": 100, "unit": "%"},
      {"measurement": "Pre-emergence action against Matricaria inodora (MATIN)", "setting": "[6]; dosage 1280 g/ha", "result": 100, "unit": "%"},
      {"measurement": "Pre-emergence action against Veronica persica (VERPE)", "setting": "Veronica persica (VERPE) [7]; dosage 320 g/ha", "result": 100, "unit": "%"},
      {"measurement": "Pre-emergence action against Veronica persica (VERPE)", "setting": "Veronica persica (VERPE) [7]; dosage 1280 g/ha", "result": 100, "unit": "%"}
    ]},
    {"compound": "Fc1cc(Cl)cnc1Oc1ccccc1-c1cc(C(F)F)no1", "note": "[Example 1-36]", "values": [
      {"measurement": "Post-emergence action against Alopecurus myosuroides (ALOMY)", "setting": "[5]; 320 g/ha", "result": 100, "unit": "%"},
      {"measurement": "Post-emergence action against Alopecurus myosuroides (ALOMY)", "setting": "[5]; 1280 g/ha", "result": 100, "unit": "%"},
      {"measurement": "Post-emergence action against Bassia scoparia (KCHSC)", "setting": "Bassia scoparia (KCHSC); dosage 320 g/ha", "result": 100, "unit": "%"},
      {"measurement": "Post-emergence action against Bassia scoparia (KCHSC)", "setting": "Bassia scoparia (KCHSC); dosage 1280 g/ha", "result": 100, "unit": "%"},
      {"measurement": "Pre-emergence action against Veronica persica (VERPE)", "setting": "Veronica persica (VERPE) [7]; dosage 320 g/ha", "result": 100, "unit": "%"},
      {"measurement": "Pre-emergence action against Veronica persica (VERPE)", "setting": "Veronica persica (VERPE) [7]; dosage 1280 g/ha", "result": 100, "unit": "%"},
      {"measurement": "Pre-emergence action against Digitaria sanguinalis (DIGSA)", "setting": "[3]", "result": 100, "unit": "%"},
      {"measurement": "Pre-emergence action against Veronica persica (VERPE)", "setting": "Veronica persica (VERPE) [4]", "result": 100, "unit": "%"}
    ]},
    {"compound": "Cc1cccc(Oc2ncc(Cl)cc2F)c1-c1cc(C(F)F)no1", "note": "[Example 1-20]", "values": [
      {"measurement": "Post-emergence action against Matricaria inodora (MATIN)", "setting": "[1]; 1280 g/ha", "result": 100, "unit": "%"},
      {"measurement": "Post-emergence action against Alopecurus myosuroides (ALOMY)", "setting": "[5]; 320 g/ha", "result": 100, "unit": "%"},
      {"measurement": "Post-emergence action against Alopecurus myosuroides (ALOMY)", "setting": "[5]; 1280 g/ha", "result": 100, "unit": "%"},
      {"measurement": "Post-emergence action against Bassia scoparia (KCHSC)", "setting": "Bassia scoparia (KCHSC); dosage 320 g/ha", "result": 100, "unit": "%"},
      {"measurement": "Post-emergence action against Bassia scoparia (KCHSC)", "setting": "Bassia scoparia (KCHSC); dosage 1280 g/ha", "result": 100, "unit": "%"},
      {"measurement": "Pre-emergence action against Matricaria inodora (MATIN)", "setting": "[6]; dosage 320 g/ha", "result": 100, "unit": "%"},
      {"measurement": "Pre-emergence action against Matricaria inodora (MATIN)", "setting": "[6]; dosage 1280 g/ha", "result": 100, "unit": "%"},
      {"measurement": "Pre-emergence action against Veronica persica (VERPE)", "setting": "Veronica persica (VERPE) [7]; dosage 320 g/ha", "result": 100, "unit": "%"},
      {"measurement": "Pre-emergence action against Veronica persica (VERPE)", "setting": "Veronica persica (VERPE) [7]; dosage 1280 g/ha", "result": 100, "unit": "%"}
    ]},
    {"compound": "Cc1cccc(Oc2ccc(Cl)cn2)c1-c1cc(C(F)F)no1", "note": "[Example 1-18, 5-[2-[(5-Chloro-2-pyridyl)oxy]-6-methylphenyl]-3-(difluoromethyl)isoxazole]", "values": [
      {"measurement": "Post-emergence action against Matricaria inodora (MATIN)", "setting": "[1]; 1280 g/ha", "result": 100, "unit": "%"},
      {"measurement": "Post-emergence action against Alopecurus myosuroides (ALOMY)", "setting": "[5]; 320 g/ha", "result": 100, "unit": "%"},
      {"measurement": "Post-emergence action against Alopecurus myosuroides (ALOMY)", "setting": "[5]; 1280 g/ha", "result": 100, "unit": "%"},
      {"measurement": "Post-emergence action against Bassia scoparia (KCHSC)", "setting": "Bassia scoparia (KCHSC); dosage 320 g/ha", "result": 100, "unit": "%"},
      {"measurement": "Post-emergence action against Bassia scoparia (KCHSC)", "setting": "Bassia scoparia (KCHSC); dosage 1280 g/ha", "result": 100, "unit": "%"},
      {"measurement": "Pre-emergence action against Matricaria inodora (MATIN)", "setting": "[6]; dosage 320 g/ha", "result": 100, "unit": "%"},
      {"measurement": "Pre-emergence action against Matricaria inodora (MATIN)", "setting": "[6]; dosage 1280 g/ha", "result": 100, "unit": "%"},
      {"measurement": "Pre-emergence action against Veronica persica (VERPE)", "setting": "Veronica persica (VERPE) [7]; dosage 320 g/ha", "result": 100, "unit": "%"},
      {"measurement": "Pre-emergence action against Veronica persica (VERPE)", "setting": "Veronica persica (VERPE) [7]; dosage 1280 g/ha", "result": 100, "unit": "%"}
    ]},
    {"compound": "Fc1cc(Cl)cnc1Oc1cccc(F)c1-c1cc(C(F)F)no1", "note": "[Example 1-19]", "values": [
      {"measurement": "Post-emergence action against Matricaria inodora (MATIN)", "setting": "[1]; 1280 g/ha", "result": 100, "unit": "%"},
      {"measurement": "Pre-emergence action against Matricaria inodora (MATIN)", "setting": "[6]; dosage 320 g/ha", "result": 100, "unit": "%"},
      {"measurement": "Pre-emergence action against Matricaria inodora (MATIN)", "setting": "[6]; dosage 1280 g/ha", "result": 100, "unit": "%"},
      {"measurement": "Pre-emergence action against Alopecurus myosuroides (ALOMY)", "setting": "[2]", "result": 100, "unit": "%"},
      {"measurement": "Pre-emergence action against Digitaria sanguinalis (DIGSA)", "setting": "[3]", "result": 100, "unit": "%"},
      {"measurement": "Pre-emergence action against Veronica persica (VERPE)", "setting": "Veronica persica (VERPE) [4]", "result": 100, "unit": "%"}
    ]}
  ]
}
